Reference: publication PMC9571063 (Molecules, 2022)

How the values were obtained:
Experiment in all cases: KINOMEscan
[1] = molecular target: T1, ABL1(H396P)-nonphosphorylated (Homo sapiens, UniProt P00519, H396P); format: binding; settings: read-out: Percent Control
T1 construct: purchased Eurofins DiscoverX KINOMEscan (scanMAX 468)

[2] = molecular target: T2, ABL1(Y253F)-phosphorylated (Homo sapiens, UniProt P00519, Y253F); format: binding; settings: read-out: Percent Control
T2 construct: purchased Eurofins DiscoverX KINOMEscan (scanMAX 468)

ABL1-nonphosphorylated = molecular target: T3, ABL1-nonphosphorylated (Homo sapiens, UniProt P00519); format: binding; settings: read-out: Percent Control
T3 construct: purchased Eurofins DiscoverX KINOMEscan (scanMAX 468)

ABL2 = molecular target: T4, ABL2 (Homo sapiens, UniProt P42684); format: binding; settings: read-out: Percent Control
T4 construct: purchased Eurofins DiscoverX KINOMEscan (scanMAX 468)

ASK1 = molecular target: T5, ASK1 (Homo sapiens, UniProt Q99683); format: binding; settings: read-out: Percent Control
T5 construct: purchased Eurofins DiscoverX KINOMEscan (scanMAX 468)

BMPR1A = molecular target: T6, BMPR1A (Homo sapiens, UniProt P36894); format: binding; settings: read-out: Percent Control
T6 construct: purchased Eurofins DiscoverX KINOMEscan (scanMAX 468)

CAMK2B = molecular target: T7, CAMK2B (Homo sapiens, UniProt Q13554); format: binding; settings: read-out: Percent Control
T7 construct: purchased Eurofins DiscoverX KINOMEscan (scanMAX 468)

CSF1R = molecular target: T8, CSF1R (Homo sapiens, UniProt P07333); format: binding; settings: read-out: Percent Control
T8 construct: purchased Eurofins DiscoverX KINOMEscan (scanMAX 468)

DCAMKL2 = molecular target: T9, DCAMKL2 (Homo sapiens, UniProt Q8N568); format: binding; settings: read-out: Percent Control
T9 construct: purchased Eurofins DiscoverX KINOMEscan (scanMAX 468)

DMPK = molecular target: T10, DMPK (Homo sapiens, UniProt Q09013); format: binding; settings: read-out: Percent Control
T10 construct: purchased Eurofins DiscoverX KINOMEscan (scanMAX 468)

ERK2 = molecular target: T11, ERK2 (Homo sapiens, UniProt P28482); format: binding; settings: read-out: Percent Control
T11 construct: purchased Eurofins DiscoverX KINOMEscan (scanMAX 468)

FAK = molecular target: T12, FAK (Homo sapiens, UniProt Q05397); format: binding; settings: read-out: Percent Control
T12 construct: purchased Eurofins DiscoverX KINOMEscan (scanMAX 468)

FES = molecular target: T13, FES (Homo sapiens, UniProt P07332); format: binding; settings: read-out: Percent Control
T13 construct: purchased Eurofins DiscoverX KINOMEscan (scanMAX 468)

FGFR2 = molecular target: T14, FGFR2 (Homo sapiens, UniProt P21802); format: binding; settings: read-out: Percent Control
T14 construct: purchased Eurofins DiscoverX KINOMEscan (scanMAX 468)

FGFR4 = molecular target: T15, FGFR4 (Homo sapiens, UniProt P22455); format: binding; settings: read-out: Percent Control
T15 construct: purchased Eurofins DiscoverX KINOMEscan (scanMAX 468)

FLT3(D835H) = molecular target: T16, FLT3(D835H) (Homo sapiens, UniProt P36888, D835H); format: binding; settings: read-out: Percent Control
T16 construct: purchased Eurofins DiscoverX KINOMEscan (scanMAX 468)

FLT3(ITD,D835V) = format: binding, human; settings: 1 μM
FYN = molecular target: T17, FYN (Homo sapiens, UniProt P06241); format: binding; settings: read-out: Percent Control
T17 construct: purchased Eurofins DiscoverX KINOMEscan (scanMAX 468)

IGF1R = molecular target: T18, IGF1R (Homo sapiens, UniProt P08069); format: binding; settings: read-out: Percent Control
T18 construct: purchased Eurofins DiscoverX KINOMEscan (scanMAX 468)

JNK2 = molecular target: T19, JNK2 (Homo sapiens, UniProt P45984); format: binding; settings: read-out: Percent Control
T19 construct: purchased Eurofins DiscoverX KINOMEscan (scanMAX 468)

LOK = molecular target: T20, LOK (Homo sapiens, UniProt O94804); format: binding; settings: read-out: Percent Control
T20 construct: purchased Eurofins DiscoverX KINOMEscan (scanMAX 468)

LRRK2(G2019S) = molecular target: T21, LRRK2(G2019S) (Homo sapiens, UniProt Q5S007, G2019S); format: binding; settings: read-out: Percent Control
T21 construct: purchased Eurofins DiscoverX KINOMEscan (scanMAX 468)

MKK7 = molecular target: T22, MKK7 (Homo sapiens, UniProt O14733); format: binding; settings: read-out: Percent Control
T22 construct: purchased Eurofins DiscoverX KINOMEscan (scanMAX 468)

MLCK = molecular target: T23, MLCK (Homo sapiens, UniProt Q32MK0); format: binding; settings: read-out: Percent Control
T23 construct: purchased Eurofins DiscoverX KINOMEscan (scanMAX 468)

MLK3 = molecular target: T24, MLK3 (Homo sapiens, UniProt Q16584); format: binding; settings: read-out: Percent Control
T24 construct: purchased Eurofins DiscoverX KINOMEscan (scanMAX 468)

MST1R = molecular target: T25, MST1R (Homo sapiens, UniProt Q04912); format: binding; settings: read-out: Percent Control
T25 construct: purchased Eurofins DiscoverX KINOMEscan (scanMAX 468)

MST3 = molecular target: T26, MST3 (Homo sapiens, UniProt Q9Y6E0); format: binding; settings: read-out: Percent Control
T26 construct: purchased Eurofins DiscoverX KINOMEscan (scanMAX 468)

NEK4 = molecular target: T27, NEK4 (Homo sapiens, UniProt P51957); format: binding; settings: read-out: Percent Control
T27 construct: purchased Eurofins DiscoverX KINOMEscan (scanMAX 468)

NEK7 = molecular target: T28, NEK7 (Homo sapiens, UniProt Q8TDX7); format: binding; settings: read-out: Percent Control
T28 construct: purchased Eurofins DiscoverX KINOMEscan (scanMAX 468)

OSR1 = molecular target: T29, OSR1 (Homo sapiens, UniProt O95747); format: binding; settings: read-out: Percent Control
T29 construct: purchased Eurofins DiscoverX KINOMEscan (scanMAX 468)

PDPK1 = molecular target: T30, PDPK1 (Homo sapiens, UniProt O15530); format: binding; settings: read-out: Percent Control
T30 construct: purchased Eurofins DiscoverX KINOMEscan (scanMAX 468)

PIP5K1A = molecular target: T31, PIP5K1A (Homo sapiens, UniProt Q99755); format: binding; settings: read-out: Percent Control
T31 construct: purchased Eurofins DiscoverX KINOMEscan (scanMAX 468)

PRP4 = molecular target: T32, PRP4 (Homo sapiens, UniProt Q13523); format: binding; settings: read-out: Percent Control
T32 construct: purchased Eurofins DiscoverX KINOMEscan (scanMAX 468)

RET = molecular target: T33, RET (Homo sapiens, UniProt P07949); format: binding; settings: read-out: Percent Control
T33 construct: purchased Eurofins DiscoverX KINOMEscan (scanMAX 468)

[3] = molecular target: T34, RPS6KA4(Kin.Dom.1-N-terminal) (Homo sapiens, UniProt O75676); format: binding; settings: read-out: Percent Control
T34 construct: RPS6KA4(Kin.Dom.1-N-terminal); purchased Eurofins DiscoverX KINOMEscan (scanMAX 468)

[4] = molecular target: T35, RSK3(Kin.Dom.2-C-terminal) (Homo sapiens, UniProt Q15349); format: binding; settings: read-out: Percent Control
T35 construct: RSK3(Kin.Dom.2-C-terminal); purchased Eurofins DiscoverX KINOMEscan (scanMAX 468)

STK33 = molecular target: T36, STK33 (Homo sapiens, UniProt Q9BYT3); format: binding; settings: read-out: Percent Control
T36 construct: purchased Eurofins DiscoverX KINOMEscan (scanMAX 468)

TAOK1 = molecular target: T37, TAOK1 (Homo sapiens, UniProt Q7L7X3); format: binding; settings: read-out: Percent Control
T37 construct: purchased Eurofins DiscoverX KINOMEscan (scanMAX 468)

TBK1 = molecular target: T38, TBK1 (Homo sapiens, UniProt Q9UHD2); format: binding; settings: read-out: Percent Control
T38 construct: purchased Eurofins DiscoverX KINOMEscan (scanMAX 468)

TNK1 = molecular target: T39, TNK1 (Homo sapiens, UniProt Q13470); format: binding; settings: read-out: Percent Control
T39 construct: purchased Eurofins DiscoverX KINOMEscan (scanMAX 468)

TRKB = molecular target: T40, TRKB (Homo sapiens, UniProt Q16620); format: binding; settings: read-out: Percent Control
T40 construct: purchased Eurofins DiscoverX KINOMEscan (scanMAX 468)

TYRO3 = molecular target: T41, TYRO3 (Homo sapiens, UniProt Q06418); format: binding; settings: read-out: Percent Control
T41 construct: purchased Eurofins DiscoverX KINOMEscan (scanMAX 468)

ULK1 = molecular target: T42, ULK1 (Homo sapiens, UniProt O75385); format: binding; settings: read-out: Percent Control
T42 construct: purchased Eurofins DiscoverX KINOMEscan (scanMAX 468)

T13 sequence (P07332 whole entry): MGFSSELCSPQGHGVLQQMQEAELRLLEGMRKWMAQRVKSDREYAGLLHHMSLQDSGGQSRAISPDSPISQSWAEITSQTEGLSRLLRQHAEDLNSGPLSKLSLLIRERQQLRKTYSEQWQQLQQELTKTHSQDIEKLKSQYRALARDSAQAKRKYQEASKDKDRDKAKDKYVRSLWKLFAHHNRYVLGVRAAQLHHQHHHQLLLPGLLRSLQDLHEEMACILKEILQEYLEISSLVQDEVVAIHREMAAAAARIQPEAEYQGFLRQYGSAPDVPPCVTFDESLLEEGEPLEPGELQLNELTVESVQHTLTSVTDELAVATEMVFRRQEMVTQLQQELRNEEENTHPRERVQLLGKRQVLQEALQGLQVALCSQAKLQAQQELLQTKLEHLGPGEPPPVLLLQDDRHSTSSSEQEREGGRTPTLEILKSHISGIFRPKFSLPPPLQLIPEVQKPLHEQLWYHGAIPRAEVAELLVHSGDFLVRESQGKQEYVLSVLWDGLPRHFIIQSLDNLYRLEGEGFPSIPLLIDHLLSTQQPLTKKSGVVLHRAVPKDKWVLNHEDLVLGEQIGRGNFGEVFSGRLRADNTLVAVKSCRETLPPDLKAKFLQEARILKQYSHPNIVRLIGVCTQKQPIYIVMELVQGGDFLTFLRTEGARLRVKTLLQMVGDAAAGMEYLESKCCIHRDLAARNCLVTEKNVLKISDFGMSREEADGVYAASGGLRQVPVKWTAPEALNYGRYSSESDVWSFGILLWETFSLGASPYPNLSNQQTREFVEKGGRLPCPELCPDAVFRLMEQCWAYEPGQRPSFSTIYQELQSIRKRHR
T19 sequence (P45984 whole entry): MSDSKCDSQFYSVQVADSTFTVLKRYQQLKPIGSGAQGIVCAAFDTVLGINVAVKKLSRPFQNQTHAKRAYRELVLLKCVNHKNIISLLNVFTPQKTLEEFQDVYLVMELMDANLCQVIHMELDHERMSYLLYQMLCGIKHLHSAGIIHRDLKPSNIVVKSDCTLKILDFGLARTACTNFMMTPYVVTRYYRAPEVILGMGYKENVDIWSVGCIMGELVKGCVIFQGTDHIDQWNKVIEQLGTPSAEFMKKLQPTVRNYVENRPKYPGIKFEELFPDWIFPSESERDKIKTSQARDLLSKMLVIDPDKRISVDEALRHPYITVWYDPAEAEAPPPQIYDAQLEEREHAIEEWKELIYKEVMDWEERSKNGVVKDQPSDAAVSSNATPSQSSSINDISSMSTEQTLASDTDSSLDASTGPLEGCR
T28 sequence (Q8TDX7 whole entry): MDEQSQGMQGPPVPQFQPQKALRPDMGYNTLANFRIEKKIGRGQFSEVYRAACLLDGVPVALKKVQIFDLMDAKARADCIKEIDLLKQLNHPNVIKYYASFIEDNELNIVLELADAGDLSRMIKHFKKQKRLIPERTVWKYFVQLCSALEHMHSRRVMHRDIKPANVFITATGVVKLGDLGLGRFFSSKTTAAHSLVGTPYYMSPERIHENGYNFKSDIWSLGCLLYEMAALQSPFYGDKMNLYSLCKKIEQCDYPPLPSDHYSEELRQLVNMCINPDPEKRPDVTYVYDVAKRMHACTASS
T11 sequence (P28482 whole entry): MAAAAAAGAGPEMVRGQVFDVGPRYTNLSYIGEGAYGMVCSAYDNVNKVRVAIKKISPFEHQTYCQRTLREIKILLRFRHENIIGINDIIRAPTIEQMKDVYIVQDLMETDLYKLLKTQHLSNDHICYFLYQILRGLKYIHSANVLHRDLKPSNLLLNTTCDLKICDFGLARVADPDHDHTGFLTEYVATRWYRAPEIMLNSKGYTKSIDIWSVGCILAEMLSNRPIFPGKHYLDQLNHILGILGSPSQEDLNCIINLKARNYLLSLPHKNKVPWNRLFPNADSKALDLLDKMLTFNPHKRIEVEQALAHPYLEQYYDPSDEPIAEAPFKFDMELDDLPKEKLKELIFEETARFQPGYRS
T27 sequence (P51957 whole entry): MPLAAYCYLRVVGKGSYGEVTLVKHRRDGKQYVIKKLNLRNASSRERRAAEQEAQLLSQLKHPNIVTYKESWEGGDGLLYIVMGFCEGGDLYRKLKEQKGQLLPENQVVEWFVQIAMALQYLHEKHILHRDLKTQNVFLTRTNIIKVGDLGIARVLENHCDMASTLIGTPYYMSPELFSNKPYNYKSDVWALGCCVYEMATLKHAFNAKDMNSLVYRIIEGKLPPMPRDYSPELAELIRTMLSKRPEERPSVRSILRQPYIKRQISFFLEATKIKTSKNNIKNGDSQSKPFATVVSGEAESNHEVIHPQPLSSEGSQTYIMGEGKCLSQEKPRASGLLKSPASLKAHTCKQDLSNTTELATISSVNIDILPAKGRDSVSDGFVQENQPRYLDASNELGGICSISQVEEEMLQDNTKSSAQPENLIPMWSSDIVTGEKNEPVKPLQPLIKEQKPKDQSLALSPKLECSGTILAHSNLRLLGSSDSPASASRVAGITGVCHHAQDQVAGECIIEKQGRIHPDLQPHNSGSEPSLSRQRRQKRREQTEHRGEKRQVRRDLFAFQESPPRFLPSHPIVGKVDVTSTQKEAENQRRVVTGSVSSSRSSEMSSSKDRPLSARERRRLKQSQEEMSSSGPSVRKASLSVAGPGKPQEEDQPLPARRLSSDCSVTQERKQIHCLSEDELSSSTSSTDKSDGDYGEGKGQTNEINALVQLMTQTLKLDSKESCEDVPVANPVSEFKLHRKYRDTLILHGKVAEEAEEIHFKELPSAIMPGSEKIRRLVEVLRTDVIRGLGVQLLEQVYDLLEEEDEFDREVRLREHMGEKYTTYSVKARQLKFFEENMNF
T10 sequence (Q09013 whole entry): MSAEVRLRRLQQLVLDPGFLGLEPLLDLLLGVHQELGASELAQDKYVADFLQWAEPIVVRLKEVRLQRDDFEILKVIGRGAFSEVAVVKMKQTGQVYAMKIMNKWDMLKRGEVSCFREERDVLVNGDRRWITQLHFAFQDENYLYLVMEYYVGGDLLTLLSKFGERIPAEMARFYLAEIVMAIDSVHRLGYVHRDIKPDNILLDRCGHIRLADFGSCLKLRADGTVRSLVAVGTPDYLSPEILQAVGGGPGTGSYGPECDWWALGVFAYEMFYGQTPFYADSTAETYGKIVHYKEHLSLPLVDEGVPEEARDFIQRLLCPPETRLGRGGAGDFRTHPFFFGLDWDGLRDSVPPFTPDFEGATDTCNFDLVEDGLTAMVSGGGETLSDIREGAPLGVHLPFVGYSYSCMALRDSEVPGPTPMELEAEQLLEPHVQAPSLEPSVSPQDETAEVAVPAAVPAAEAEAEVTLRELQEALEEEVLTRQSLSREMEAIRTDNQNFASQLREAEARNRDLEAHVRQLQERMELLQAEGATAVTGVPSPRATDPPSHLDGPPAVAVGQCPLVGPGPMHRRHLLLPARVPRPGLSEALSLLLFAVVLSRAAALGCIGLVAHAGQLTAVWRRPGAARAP
T6 sequence (P36894 24-532): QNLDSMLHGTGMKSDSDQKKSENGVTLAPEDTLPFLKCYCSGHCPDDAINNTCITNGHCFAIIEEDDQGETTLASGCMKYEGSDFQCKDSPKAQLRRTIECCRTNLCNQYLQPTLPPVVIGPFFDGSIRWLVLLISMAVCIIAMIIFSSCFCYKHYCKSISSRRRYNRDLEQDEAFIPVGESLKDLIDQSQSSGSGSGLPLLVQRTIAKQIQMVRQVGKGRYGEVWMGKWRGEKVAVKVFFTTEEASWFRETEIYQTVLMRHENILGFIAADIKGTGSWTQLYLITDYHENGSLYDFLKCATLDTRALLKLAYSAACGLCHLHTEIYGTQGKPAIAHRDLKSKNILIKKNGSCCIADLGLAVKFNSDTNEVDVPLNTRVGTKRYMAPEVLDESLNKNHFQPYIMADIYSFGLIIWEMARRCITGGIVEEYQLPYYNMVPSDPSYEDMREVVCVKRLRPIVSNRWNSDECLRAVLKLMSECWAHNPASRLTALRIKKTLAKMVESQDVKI
T22 sequence (O14733 whole entry): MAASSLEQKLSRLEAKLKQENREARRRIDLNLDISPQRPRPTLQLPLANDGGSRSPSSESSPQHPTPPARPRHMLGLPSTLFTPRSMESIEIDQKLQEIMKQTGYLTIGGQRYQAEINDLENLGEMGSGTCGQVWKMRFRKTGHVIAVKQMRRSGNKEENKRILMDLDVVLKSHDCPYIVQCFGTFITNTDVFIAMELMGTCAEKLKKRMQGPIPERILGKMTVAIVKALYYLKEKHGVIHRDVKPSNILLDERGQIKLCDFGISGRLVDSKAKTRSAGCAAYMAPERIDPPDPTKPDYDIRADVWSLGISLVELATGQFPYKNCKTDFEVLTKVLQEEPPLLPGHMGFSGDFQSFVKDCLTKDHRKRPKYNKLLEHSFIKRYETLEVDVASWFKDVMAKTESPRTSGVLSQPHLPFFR
T7 sequence (Q13554 whole entry): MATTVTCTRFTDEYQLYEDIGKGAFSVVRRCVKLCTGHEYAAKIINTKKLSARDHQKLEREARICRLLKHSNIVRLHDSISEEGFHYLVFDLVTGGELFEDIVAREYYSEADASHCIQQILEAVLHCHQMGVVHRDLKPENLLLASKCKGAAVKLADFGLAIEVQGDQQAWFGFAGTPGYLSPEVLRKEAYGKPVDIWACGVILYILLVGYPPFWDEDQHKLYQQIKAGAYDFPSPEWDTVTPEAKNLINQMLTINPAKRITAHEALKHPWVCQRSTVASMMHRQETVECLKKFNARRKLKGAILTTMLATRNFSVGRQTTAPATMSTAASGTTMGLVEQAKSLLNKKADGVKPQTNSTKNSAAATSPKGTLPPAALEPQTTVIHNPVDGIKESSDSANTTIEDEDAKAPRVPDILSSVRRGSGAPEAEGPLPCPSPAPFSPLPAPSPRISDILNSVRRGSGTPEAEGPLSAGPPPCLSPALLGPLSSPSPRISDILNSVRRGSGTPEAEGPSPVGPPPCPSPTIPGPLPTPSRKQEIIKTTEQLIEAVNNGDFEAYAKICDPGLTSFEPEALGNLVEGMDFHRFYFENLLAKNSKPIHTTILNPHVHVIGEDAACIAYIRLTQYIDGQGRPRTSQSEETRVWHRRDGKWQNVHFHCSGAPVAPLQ

Cc1ccc(-n2cc(COc3cccc4cnc(Nc5cccc(Cl)c5)nc34)nn2)c([N+](=O)[O-])c1 [DB18]
99%: remaining binding at 1 µM (NEK4)
86%: remaining binding at 1 µM (TRKB)
85%: remaining binding at 1 µM (ABL1-nonphosphorylated) | remaining binding at 1 µM (NEK7)
53 % Ctrl: Percent Control (FLT3(ITD,D835V))
92%: remaining binding at 1 µM (PDPK1) | remaining binding at 1 µM (RET)
97%: remaining binding at 1 µM [2]
93%: remaining binding at 1 µM (FYN)
89%: remaining binding at 1 µM (MLCK)
100%: remaining binding at 1 µM (ABL2) | remaining binding at 1 µM (ASK1) | remaining binding at 1 µM (CAMK2B) | remaining binding at 1 µM (CSF1R) | remaining binding at 1 µM (DCAMKL2) | remaining binding at 1 µM (DMPK) | remaining binding at 1 µM (ERK2) | remaining binding at 1 µM (FAK) | remaining binding at 1 µM (FES) | remaining binding at 1 µM (FGFR2) | remaining binding at 1 µM (FGFR4) | remaining binding at 1 µM (IGF1R) | remaining binding at 1 µM (LOK) | remaining binding at 1 µM (MKK7) | remaining binding at 1 µM (MLK3) | remaining binding at 1 µM (MST1R) | remaining binding at 1 µM (MST3) | remaining binding at 1 µM (OSR1) | remaining binding at 1 µM (PIP5K1A) | remaining binding at 1 µM (PRP4) | remaining binding at 1 µM [3] | remaining binding at 1 µM [4] | remaining binding at 1 µM (STK33) | remaining binding at 1 µM (TAOK1) | remaining binding at 1 µM (TNK1) | remaining binding at 1 µM (TYRO3) | remaining binding at 1 µM (ULK1)
95%: remaining binding at 1 µM (LRRK2(G2019S))
55%: remaining binding at 1 µM (FLT3(D835H))
68%: remaining binding at 1 µM (BMPR1A)
96%: remaining binding at 1 µM [1] | remaining binding at 1 µM (JNK2)
91%: remaining binding at 1 µM (TBK1)
